Laboratory results published in patent EP2599767A1, “Phenylbutyl-derivatives” (Lunamed AG, priority 2011, dated 2013).
Where two headings read alike, the source gives them in different places.

What was measured:
[1] = test system: Jurkat cells; assay: Cell proliferation assay (dilution of fluorescent membrane marker, flow cytometry); type: cell-based; conditions: for IC50: Homo sapiens, Jurkat, 48 h; for anti-proliferative effect (in words): Jurkat cell line, 48 hours of treatment, without zVAD, Example 3: 30mM and 10mM
Protocol: This study was performed using the following cell line on the two types of experiments performed: • Experiment 1: Study of the effects of compounds of Examples 3 and 4 according to the invention on apoptosis and cell proliferation: • o Jurkat: acute T cell leukemia • Experiment 2: Study of the caspase dependency of cell death induced by the compounds of Example 3 and 4 according to the invention. • o Jurkat: acute T cell leukemia This assay is based on the dilution rate of a fluorescent membrane marker which is a direct function of cell division. This probe is non toxic and allows the multiplexed detection of other parameters on the same cell population. The assay is performed by loading the cells with a fluorescent phospholipid analogue before plating. […] Subsequently, Flow cytometry analyzes the dilution rate of the fluorescent probe at the single cell level which is a direct readout of the number of cell divisions. All the conditions were performed in triplicate. Detection of cellular events was performed in triplicate in 96 well-plates after 48 hours of treatment by automated flow cytometry. Non-linear regressions and IC50 calculation were performed with GraphPad Prism 4.01 software. Briefly the time course of the experiments was the following: • o day 1 : seeding of cells in 96 well-plates. • o day 2 : treatment with compounds. • o day 4 : analysis at 48h-treatment. […] Effects of the two compounds of Examples 3 and 4 on apoptosis and cell proliferation in the Jurkat cell line: • The cells were labeled for subsequent cell proliferation measurements and plated in 96 well culture plates in standard culture conditions. • 24 hours after plating, the cells were treated with the two compounds of Examples 3 and 4. Experiment 2: […]

[2] = Solubility in solvents (qualitative); type: physicochemical; conditions: solvents as named in the value
[3] = test system: Jurkat cells; assay: Apoptosis assay (active Caspase 3/7 by FAM-DEVD-FMK probe, flow cytometry); type: cell-based; conditions: Jurkat cell line; for EC50: Homo sapiens, pro-apoptotic effects; for EC50 / pro-apoptotic effect (in words): 48 hours of treatment; for caspase dependence: effects in presence of zVAD-FMK (in words): 100µM zVAD-FMK, Example 4 at 5mM; for pro-apoptotic effect (in words): Example 3: 30mM and 10mM
Protocol: This study was performed using the following cell line on the two types of experiments performed: • Experiment 1: Study of the effects of compounds of Examples 3 and 4 according to the invention on apoptosis and cell proliferation: • o Jurkat: acute T cell leukemia • Experiment 2: Study of the caspase dependency of cell death induced by the compounds of Example 3 and 4 according to the invention. • o Jurkat: acute T cell leukemia Apoptosis was quantified at the single cell level by titrating active Caspase 3/7. This assay is based on the strong affinity of the FAM-DEVD-FMK peptide (carboxyfluorescein-labeled fluoromethyl ketone) for the catalytic site of the protease. When added to a cell culture, the FAM-DEVD-FMK probe enters cells and covalently binds to the large subunit of the active caspase 3/7. The bound labelled peptide remains within the cytosolic compartment, while the unbound peptides are drained off from the cell. The probe emits a green fluorescent signal which allows a direct measure of the amount of active caspase 3/7 present in the cell. All the conditions were performed in triplicate. Detection of cellular events was performed in triplicate in 96 well-plates after 48 hours of treatment by automated flow cytometry. Non-linear regressions and IC50 calculation were performed with GraphPad Prism 4.01 software. Briefly the time course of the experiments was the following: • o day 1 : seeding of cells in 96 well-plates. • o day 2 : treatment with compounds. • o day 4 : analysis at 48h-treatment. […] Effects of the two compounds of Examples 3 and 4 on apoptosis and cell proliferation in the Jurkat cell line: • The cells were labeled for subsequent cell proliferation measurements and plated in 96 well culture plates in standard culture conditions. • 24 hours after plating, the cells were treated with the two compounds of Examples 3 and 4. Experiment 2: […] zVad-FMK is a cell-permeant pan caspase inhibitor that irreversibly binds to the catalytic site of caspase proteases and can inhibit induction of apoptosis.

[4] = +100µM zVAD, read-out: EC50 (+100µM zVAD)
[5] = without zVAD, read-out: EC50 (without zVAD)

SMILES | IC50 ([1]; read-out: IC50 (+100µM zVAD)) [µM] | IC50 ([1]; read-out: IC50 (without zVAD)) [µM] | anti-proliferative effect (in words) [1] | solubility (in words) [2] | EC50 [3, 4] [mM] | EC50 [3, 5] [mM] | caspase dependence: effects in presence of zVAD-FMK (in words) [3] | pro-apoptotic effect (in words) ([3]; without zVAD)
CC(NC(=O)CCCc1ccccc1)C(=O)O (centres unmarked) [Example 3, 2-(4-Phenyl-butyrylamino)-propionic acid] | 4300 | 3200 | anti-proliferative effects | soluble in alcohols (ethanol and methanol) as well as in acetic acid | 13 | 6.4 | sensitive to 100µM zVAD-fmk | pro-apoptotic
O=C(O)CCCc1ccccc1 [Example 4-PB, 4-Phenylbutyric acid, reference compound] | 2200 | 2600 | inhibit proliferation |  | 10 | 3.2 | well inhibited by zVAD-FMK | able to elicit apoptosis
CN[C@@H]1C[C@H]2O[C@@](C)([C@@H]1OC)n1c3ccccc3c3c4c(c5c6ccccc6n2c5c31)C(=O)NC4 [STS, Staurosporine, reference compound] | 0.011 | 0.012 |  |  |  | 2.3e-05 |  | 
C[C@H](NC(=O)CCCc1ccccc1)C(=O)OCCOC(=O)[C@@H](C)NC(=O)CCCc1ccccc1 [Example 4] |  | 9000 | concentration dependent anti-proliferative effect | soluble in dichloromethane, ethyl acetate and acetonitrile |  |  | no apoptosis was observed | able to induce apoptosis only at the highest concentration tested (5mM)
